Each structure is given as a SMILES string.

The melting point is the temperature, or range, at which the solid turns liquid. With `FC(F)(F)c1ccc2c(c1)ncn2-c1cccc(-n2ccnc2)c1`, the melting point is 177 to 180 °C.
Compound `COCc1c(C)c(C(C)(C)C)cc(C(C)(C)C)c1O` returned a melting point of 70 °C.
Compound `O=c1c(Cc2ccccc2)c(O)c2cccc3c2n1C(c1ccccc1)C3` (configuration not stated) showed a melting point of 252 to 254 °C.
The figure for `COc1ccc(N(C(C)C)S(=O)(=O)c2ccc(C)cc2)c([N+](=O)[O-])c1` is 148 to 150 °C; for `COc1cc(N2CCN([C@H]3CC[C@H](c4cn(C)c5ccc(C#N)cc54)CC3)CC2)c2ncccc2c1Cl` it is 215 to 216 °C; for `O=C(O)CCNC(=O)[C@H](Cc1ccc(-c2ccccc2)cc1)NCP(=O)(O)Oc1ccccc1` it is 222 to 223 °C.
The figure for `FC(F)(F)Oc1ccc(C2NCCc3c2[nH]c2ccccc32)cc1` (configuration not stated) is 68 to 69 °C; for `O=S(=O)(Nc1cc(Cl)c(Oc2nc3ccc(Cl)cc3s2)c(Cl)c1)c1ccc(C(F)(F)F)cc1Cl` it is 82 to 84 °C.
The figure for `CCN1CCC(=O)C(=C2SC=CS2)C1=O` is 114 to 117 °C.
With `CCCC[C@H](NC(=O)[C@H](CC(C)C)NC(=O)C1CCN(C(C)=O)CC1)C(=O)CSCc1ccco1`, the melting point lay in the range of 110 to 112 °C.
`c1ccc(-c2ccc(-c3csc(Nc4cc5ccccc5cn4)n3)s2)nc1`: the melting point lay in the range of 246 to 248 °C.
To `CC1c2ccccc2CCN1C(=O)c1cc2ncc(Br)cn2n1` (configuration not stated) belongs 121 to 123 °C.
The figure for `OCC1OC(n2c(Cl)nc3c(NCc4ccccc4)ncnc32)C(O)C1O` (configuration not stated) is 90 to 92 °C; for `COc1cnccc1NC(=O)Nc1ccc(N2CCN(C(=O)Nc3ccc(OCCO)cc3C(F)(F)F)CC2)cc1` it is 142 to 143 °C.
Regarding `CCC(CC)C(c1ccnn1-c1ccccc1)N(C)S(=O)(=O)c1ccc(Cl)s1` (configuration not stated), the melting point lay within 126 to 128 °C.
On to `Cc1nnc(-c2ccnc(NCc3cccc(C(F)(F)F)c3)c2)o1`, for which the melting point was 141 to 142 °C.
For `Nc1ccn(C2CN3CCC2CC3)n1` (configuration not stated), the melting point lay within 112 to 115 °C.
The figure for `NC(=NO)c1c(F)cccc1Cl` is 115 to 120 °C; for `CC(=O)OC(c1nc2c(C(F)(F)F)cccc2c(O)c1C(=O)Nc1nccs1)C(C)C` (configuration not stated) it is 242 °C.
The figure for `CC(C)(O)c1ccc(CNC(=O)c2cccnc2Oc2ccc(F)cc2F)cc1` is 92 to 94 °C; for `COc1cc(C)c(C(=O)c2ccccc2)c(OC)c1OC` it is 88 to 89 °C.
Regarding `COc1ccc2nc(-c3cc(F)c(OC)c(F)c3)cc(Br)c2c1`, the melting point is 170 to 172 °C.
To `COCCOCc1nc2c(N)nc3ccccc3c2n1CCOc1ccccc1` belongs 170 to 172 °C; to `Clc1ccc(-c2nnc(Br)cc2Br)cc1`, 160 to 162 °C; to `CCC(=C1SCN(C)CS1)c1ccc(Oc2ccccc2)cc1`, 96 to 96.5 °C.
To `CNCCCCOc1ccc2c(ccn2-c2ccc(F)cc2)c1` belongs 49 to 50 °C; to `O=C(Nc1ccc(Cl)cc1)C(CS)Cc1ccccc1` (configuration not stated), 142 °C.
The figure for `Cc1cc(Cl)c([N+](=O)[O-])cc1NCCO` is 110 °C; for `Cc1c(C(=O)Nc2ccc(N3CCC(NCCO)CC3)c(C#N)c2)cnn1-c1ccc(C(F)(F)F)cc1` it is 202 °C.
In turn, `COc1ccc2ccccc2c1/C=C/NC=O` displayed a melting point of 160 to 162 °C.
`Cc1c(NC(=O)CC(C)(C)C)c(C)c2c(-c3ccc(C(C)C)cc3)coc2c1C`: the melting point was in the range of 229 to 230 °C.
The figure for `C#CC1C2=C(c3ccc(OCc4ccccc4[N+](=O)[O-])cc3N1C(=O)Oc1ccccc1)C(O[Si](C)(C)C(C)(C)C)CCC2` (configuration not stated) is 188 to 190 °C.
In turn, `CCOCc1nc2c(N)nc3ccccc3c2n1Cc1cc(-c2ccccc2)on1` gave a melting point of 221 to 223 °C.
With `CC(C)(C)OC(=O)Cn1cccc(NC(=O)OCc2ccccc2)c1=O`, the melting point lay in the range of 88 to 90 °C.
In turn, `O=C1Nc2cc(CN3CCC(c4ccccc4)CC3)ccc2OC1F` (configuration not stated) registered a melting point of 217 to 221 °C.
To `CON(C)C(=O)Nc1ccc(CN2OCCC(C)(C)C2=O)c(Cl)c1` belongs 116 to 118 °C; to `CC(=NO)c1cccc(C(F)(F)F)c1`, 63 to 65 °C.
To `CCCc1nc(SC)c(C(O)(C(=O)O)c2ccccc2)n1Cc1ccc(-c2ccccc2S(=O)(=O)NC(=O)NCc2ccccc2)cc1` (configuration not stated) belongs 170 °C.
The figure for `C=CCOC(=O)C1=C(C)NC(C)=C(C(=O)OCC)C1c1ccc(OC)c(OC)c1OC` (configuration not stated) is 134 to 135 °C; for `Cc1cc(N)c(C)c2c1OC(C)(C)C2=O` it is 124 to 126 °C.
For the compound `CCn1cc(C2(c3cccc(-c4cccnc4F)c3)N=C(N)N(C)C2=O)cc1COC` (configuration not stated), the melting point lay in the range of 154 to 157 °C.
The figure for `O=C(c1ccc([N+](=O)[O-])cc1)N1CCc2cc(S(=O)(=O)N3CC(c4ccccc4)NC3=O)ccc21` (configuration not stated) is 145 °C.
`Nc1c2c(nc3ccccc13)CCCC2N1CCOCC1` (configuration not stated) showed a melting point of 215 to 217 °C.
The figure for `CC(C)(C)c1cc(C(=O)c2ccsc2)cc2c1OCC2(C)C` is 89 to 90 °C; for `CCCCCCNC(=O)Nc1ccccc1C(=O)NC1CCN(C(c2ccccc2)c2ccccc2)CC1` it is 192 to 194 °C.
For the compound `COc1ccc(-c2c(C)c(NC(=O)CC(C)(C)C)c(C)c3c2OCC3c2ccc(C(C)C)cc2)cc1` (configuration not stated), the melting point was 129 to 131 °C.
Regarding `O=C1c2ccccc2C(=O)N1CCCCc1nc[nH]n1`, the melting point is 169 to 171 °C.
The figure for `c1ccc2c(c1)nc(NCCN1CCNCC1)c1c3ccccc3[nH]c21` is 210 to 211 °C.
The compound `O=c1oc2ccccc2c(O)c1CCCOc1ccccc1` yielded a melting point of 125 to 126 °C.
In the case of `Cc1nc2cnccc2n1-c1ccc(C2=Nc3ccccc3N(C)C(=O)C2)cc1`, the melting point was determined as 147 °C.
As for `NC(=O)c1cc2cc(Cl)ccc2nc1N`, the melting point was in the range of 250 to 251 °C.
In turn, `CCOC(=O)c1ccc(OCCC2CCN(c3ccc(C)nn3)CC2)cc1` had a melting point of 130 °C.
As to `COC(=O)Cc1cc2c(s1)-n1c(C)nnc1C(C)N=C2c1ccccc1Cl` (configuration not stated), the melting point was in the range of 105 to 106 °C.
Take `CCCc1c(COc2ccc(Cc3nnn(CC(=O)O)n3)cc2)ccc(C(C)=O)c1O`: the melting point is 87 to 90 °C.
As to `COc1ccc(-c2ccc(C(=O)Nc3cc4ncc(CN5CCCC5)cc4cc3C)c(F)c2)cc1`, the melting point was 187 to 190 °C.
For `Cc1cc(Cn2nnc(C(N)=O)c2N)ccc1C(=O)c1ccccc1`, the melting point lay in the range of 181 to 182 °C.
`CCOC(=O)c1cn2c(=O)n(CC)c3ccccc3n2c1=O`: the melting point is 235 to 237 °C.
To `Cc1ccc2c(c1)CN1CCCC1C(=O)N2C` (configuration not stated) belongs 80 to 82 °C; to `CC1(C)N=C(Oc2ccnc(O)c2)c2cc(C#N)ccc2O1`, 275 to 278 °C.
For `O=C(Nc1ccc(CN2C(=O)[C@H]3CCC[C@H]3N(C(=O)CN3C(=O)c4ccccc4C3=O)c3ccccc32)cc1)OCc1ccccc1` (relative stereo), the melting point was in the range of 144 to 147 °C.
The figure for `Oc1nn(-c2ccccn2)c(-c2ccccc2)c1Cc1ccccc1` is 115 to 116 °C; for `Cc1ccc(C(O)c2cc3ccncc3[nH]2)cc1` (configuration not stated) it is 78 to 82 °C; for `COc1ccc(/C=C(/C(=O)O)c2cc(OC)c(OC)c(OC)c2)cc1` it is 187 to 189 °C.
As to `NC(=O)c1ccc(F)c2c1CC(N(CCCc1c[nH]c3ccc(F)cc13)CC1CC1)CO2` (configuration not stated), the melting point is 121 °C.
Turning to `Cc1[nH]c(=S)n(Nc2cccc(Cl)c2)c1-c1ccc(Cl)cc1`, the melting point came to 225 °C.
The figure for `COc1ccc(C(O)CN2CCN(C(c3ccccc3)c3ccccc3)CC2)c(OC)c1` (configuration not stated) is 116 °C.
For the compound `O=[PH](c1ccc2ccccc2c1)c1ccc2ccccc2c1`, the melting point is 98.3 °C.
Turning to `CC(C)(C)c1ccc(CC(=O)CCCC2CCCCC2)cc1NC(=O)CC1c2ccccc2Oc2ccccc21`, the melting point is 146 to 147 °C.
The figure for `Cc1nsc(NC(=O)C(C)c2ccc(O)c(N)c2)c1Cl` (configuration not stated) is 222 to 223 °C; for `COc1ccc(Cn2c(C)cc3cnnc(Cl)c32)cc1` it is 126 to 128 °C; for `CC1(C)Nc2ccc(C#N)cc2C(NC(=NC#N)Nc2ccccc2)C1O` (configuration not stated) it is 218 to 219 °C.
The figure for `CC(C)(C#N)c1cc(C#N)cc(Cn2ccnc2)c1` is 89 to 92 °C; for `CCc1cccc(NC(=O)c2nnn[nH]2)c1O` it is 185 to 187 °C; for `O=C1CCC(c2ccccc2)(c2ccccc2)[C@@H]2CN(C(=O)Cc3c(Cl)cccc3Cl)C[C@H]12` (racemic) it is 201 °C.
In turn, `CCOC(=O)C(C(=O)COC(C)C)C1c2ccccc2C(=O)N1c1ccc2ccc(Cl)nc2n1` (configuration not stated) registered a melting point of 205 °C.
The figure for `O=S(=O)(CC1CC1)c1nc[nH]n1` is 140 to 149 °C; for `Cc1nnc(CN2C(=O)c3ccccc3C2=O)n1-c1ccc(Cl)cc1C(=O)c1ccccc1` it is 215 to 218 °C.
Consider `Clc1ccc(-c2nc3n(c2Br)CCCC3)c(Cl)c1`, for which the melting point lay in the range of 112 to 113 °C.
In the case of `Cn1c(=O)c(-c2ccc(Cl)cc2Cl)cc2c3cc(-c4csc(CO)n4)ccc3n(C)c21`, the melting point was in the range of 261 to 262 °C.
To `Clc1ccnc(-n2ccnc2)n1` belongs 138 to 139 °C; to `O=C(c1ccccc1)c1ccc2nc(Br)c(C(F)(F)F)nc2c1`, 124 to 126 °C.
In turn, `CNc1nc(C)nc(N2CCCc3ccccc32)n1` registered a melting point of 159 to 160 °C.
The compound `CCOC(=O)CCc1c(O)ccc2ccc(OCC(=O)OCC)cc12` gave a melting point of 112 to 113 °C.
`Cc1c(N)cccc1C(=O)c1ccc(Cl)cc1` returned a melting point of 65 °C.
To `CSc1nn2c(=O)cc(CCl)nc2s1` belongs 168 to 169 °C.
The figure for `COc1cc(C(=O)N2CCC(CCOS(C)(=O)=O)(c3ccc(Cl)c(Cl)c3)C2)cc(OC)c1OC` (configuration not stated) is 64 to 66 °C; for `CN1CCC(c2c[nH]c3ccc(NC(=O)c4ccc5ccccc5c4)cc23)CC1` it is 153 to 156 °C.
